From PMC8743659, “C1632 suppresses the migration and proliferation of non‐small‐cell lung cancer cells involving LIN28 and FGFR1 pathway” (Journal of Cellular and Molecular Medicine, 2021)

Experiments:
[1] = system: FGFR1; assay: Western blot of FGFR1 signalling in NSCLC cells; type: cell-based, human; details: Ponatinib, A549 and A549R cell lines
Protocol: The total cell protein was extracted and denaturized at 95°C for 10 min. Samples were separated in SDS‐PAGE gel, then transferred to a PVDF membrane. […] Blots were probed with relevant primary antibodies against FGFR1 (CST), p‐FGFR1 (CST), MAPK (CST), p‐MAPK (CST), FAK (CST), p‐FAK (CST), MMP‐9 (CST), LIN28B (CST), GAPDH (CST), and β‐actin (proteintech) overnight at 4°C, respectively. Then the lanes were detected with HRP‐conjugated secondary antibodies and visualized using WESTAR SUPERNOVA kit ([…]).

[2] = system: LIN28B; assay: Western blot of LIN28B after FGFR1 inhibition; type: cell-based, human; details: Ponatinib, A549 and A549R cell lines
Protocol: The total cell protein was extracted and denaturized at 95°C for 10 min. Samples were separated in SDS‐PAGE gel, then transferred to a PVDF membrane. Then this membrane was blocked with 5% non‐fat milk (solved in TBST) for 2.5 h at room temperature. Blots were probed with relevant primary antibodies against FGFR1 (CST), p‐FGFR1 (CST), MAPK (CST), p‐MAPK (CST), FAK (CST), p‐FAK (CST), MMP‐9 (CST), LIN28B (CST), GAPDH (CST), and β‐actin (proteintech) overnight at 4°C, respectively. Then the lanes were detected with HRP‐conjugated secondary antibodies and visualized using WESTAR SUPERNOVA kit (CYANAGEN).

SMILES: Cc1ccc(C(=O)Nc2ccc(CN3CCN(C)CC3)c(C(F)(F)F)c2)cc1C#Cc1cnc2cccnn12 [Ponatinib, reference compound]
- effect on FGFR1 [1]: inhibited FGFR1
- expression of LIN28B [2]: suppressing the expression of LIN28B
